According to US8906888B2, “Low-calcemic 16,23-diene 25-oxime analogs of 1α,25-dihydroxy vitamin D3” (Cytochroma Inc., priority 2005, dated 2014):

What was measured:
Type in all cases: cell-based
[1] = system: SCC-25 cells; assay: [3H]-Thymidine proliferation assay with SCC-25 cells; conditions: head and neck cancer cells, 3 days, 3H-thymidine incorporation
Description: 1. Preparation of Cell Suspension • When SCC-25 cells were 70-80% confluent, aspirated media. Washed the cells with 1×PBS. Trypsinized with trypsin-EDTA from the plate, collected cells from the tissue culture flask, centrifuged (500×g, 5 min) and resuspended in media.
2. Cell Plating. • Counted the cells and adjusted the cell density to 10,000/ml. Added 200 μl per well in a 96 well plate. Incubated plate for 24 h at 37° C. in a humidified atmosphere plus 5% CO2. Aspirated used media and replaced with 175 μl per well with media.
3. Substrate Addition. • Added 25 μl of compound (final concentration 10^−7 M, 5×10^−8 M, 10^−8 M, 5×10^−9 M, 10^−10 M or 0 M) into each designated well. Incubated plates for 3 days at 37° C. in a humidified atmosphere plus 5% CO2.
4. ^3H-Thymidine Incorporation. • Added ^3H-thymidine at 0.02 μCi per well and incubated at 37° C. in a humidified atmosphere plus 5% CO2 for 6 h.
5. Plate Harvesting. • Aspirated all media and washed cells with 1×PBS. Trypsinized cells for 30 min at 37° C. in a humidified atmosphere plus 5% CO2. Harvested cells onto a 96 well filter plate (Millipore) using a Tomtec Cell Harvestor, according to manufacturers instructions.
6. Scintillation Counting. • Added 25 μl of scintillation fluid per well. Counted the plate using a scintillation counter. Results: Compound (20R)-1(e) inhibited SCC-25 cell proliferation.

[2] = molecular target: T1, CYP24 (Homo sapiens, UniProt Q07973); assay: CYP24 enzyme assay (V79-CYP24 cells, 3H-1α,25(OH)2D3 substrate); conditions: substrate 20 nM, 2 hours, read-out: IC50 in the inhibition of CYP24
T1 construct: expressed in transfected cells; host or cells: V79-CYP24 cells (V79 = Chinese hamster lung fibroblasts, own knowledge; kept under hygromycin selection)
T1 sequence (Q07973 36-514): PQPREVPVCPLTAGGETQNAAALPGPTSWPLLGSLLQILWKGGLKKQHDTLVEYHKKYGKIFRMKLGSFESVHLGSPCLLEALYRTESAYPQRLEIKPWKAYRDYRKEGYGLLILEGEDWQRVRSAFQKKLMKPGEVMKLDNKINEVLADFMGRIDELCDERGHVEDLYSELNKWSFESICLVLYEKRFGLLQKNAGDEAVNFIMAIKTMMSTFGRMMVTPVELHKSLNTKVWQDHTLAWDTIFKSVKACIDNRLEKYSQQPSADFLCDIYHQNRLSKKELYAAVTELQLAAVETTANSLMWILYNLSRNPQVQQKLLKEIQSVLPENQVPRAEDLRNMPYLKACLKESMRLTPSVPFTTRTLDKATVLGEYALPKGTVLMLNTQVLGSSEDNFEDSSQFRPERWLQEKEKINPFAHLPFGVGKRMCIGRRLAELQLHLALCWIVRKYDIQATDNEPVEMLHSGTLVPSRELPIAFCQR
Description: (i) Material and Reagents:
Substrates (1 mM) reconstituted in isopropanol
1. Preparation of Cell Suspension • On the day of the assay, washed the monolayer of V79-CYP24 cells once with 1×PBS buffer and then trypsinized for 5 min at room temperature (approx. 22° C.). Added 1×PBS. Collected cells into tube, centrifuged cells (500×g, 5 min) and resuspended in DMEM+1% BSA media. Counted cells and adjusted density to 2 million/1 mL.
2. Cell Plating • Added 80 μl of cell suspension to appropriately labeled wells of a 96-well plate. Incubated plate for 45 minutes at 37° C. in a humidified atmosphere containing 5% CO2.
3. Compound Addition • Added 10 μl of inhibitor (10^−6 to 10^−10 M) and then after 35-40 min added 10 μl of substrate [^3H-1β]-1α,25(OH)2D3 (20 nM) for 2 hours at 37° C. in a humidified atmosphere containing 5% CO2. Both inhibitor and substrate were prepared in DMEM with 1% BSA media.
4. Lipid Extraction and Counting • Added 250 μl of methanol to stop the reaction and mixed. Added […] of dichloromethane, covered block and vortexed. Added […] of dichloromethane again, added […] of saturated KCl and vortexed. Centrifuged at 3000 rpm for 30 min. Triplicate 100 μl aliquots of aqueous fraction were mixed with 200 μl of scintillation fluid and the radioactivity was measured using a scintillation counter. All values were normalized for background. (iii) Results: • 1. […] (iv) Reference: 1. PCT Patent Application Serial No. PCT/CA03/00620

[3] = system: OVCAR-3 cells; assay: [3H]-Thymidine proliferation assay with OVCAR-3 cells; conditions: ovarian cancer cells, 6 days, 3H-thymidine incorporation
Description: 1. Preparation of Suspension • When OVCAR-3 cells were ˜50% confluent, aspirated media. Washed cells with 1×PBS. Trypsinized with trypsin-EDTA, collected cells from the tissue culture flask, centrifuged (200×g, 5 min) and resuspended in media.
2. Cell Plating. • Counted the cells and adjusted the cell density to 11.4×10^3 to provide 2000 cells in 175 μl (for 1 well). Distributed cell suspension into a 96 well plates at 175 μl (2000 cells) per well. Incubated plate for 24 h at 37° C. in a humidified atmosphere plus 5% CO2. • Substrate addition. • Added 25 μl of compound (final concentration 10^−7 M, 5×10^−8 M 10^−8 M, 5×10^−9 M, 10^−9 M, 10^−10M or 0 M) into each designated well. Incubated plates for 6 days without changing media and drugs at 37° C. in a humidified atmosphere plus 5% CO2.
3. [^3H]-Thymidine incorporation • Added ^3H-thymidine at 0.02 μCi per well and incubated at 37° C. in a humidified atmosphere plus 5% CO2 for 6 h.
4. Plate Harvesting. • Aspirated all media and washed cells with 1×PBS. Trypsinized cells for 30 min at 37° C. in a humidified atmosphere plus 5% CO2. Harvested cells onto a 96 well filter plate (Millipore) using a Tomtec Cell Harvestor, according to manufacturers instructions.
5. Scintillation Counting. • Added 25 μl of scintillation fluid per well. Counted the plate using a scintillation counter. Results: Compounds (20R)-I(a), (20R)-I(c) and (20R)-I(e) all inhibited the proliferation of OVCAR-3 cells.

C=C1/C(=C\C=C2/CCC[C@]3(C)C([C@H](C)C/C=C/C(=NOC)C(C)(C)C)=CC[C@@H]23)C[C@@H](O)C[C@@H]1O [(20R)-I(e)]
Inhibition of SCC-25 cell proliferation [1]: inhibited
IC50 [2]: 20.7 nM
Inhibition of OVCAR-3 cell proliferation [3]: inhibited
